The source of these data is BindingDB's records for doi:10.1021/acs.biochem.5b00431 (University of California Irvine, 2015).

This experiment deals with T1, Nitric oxide synthase oxygenase (Bacillus subtilis (strain 168), UniProt O34453).
T1 sequence (O34453 whole entry): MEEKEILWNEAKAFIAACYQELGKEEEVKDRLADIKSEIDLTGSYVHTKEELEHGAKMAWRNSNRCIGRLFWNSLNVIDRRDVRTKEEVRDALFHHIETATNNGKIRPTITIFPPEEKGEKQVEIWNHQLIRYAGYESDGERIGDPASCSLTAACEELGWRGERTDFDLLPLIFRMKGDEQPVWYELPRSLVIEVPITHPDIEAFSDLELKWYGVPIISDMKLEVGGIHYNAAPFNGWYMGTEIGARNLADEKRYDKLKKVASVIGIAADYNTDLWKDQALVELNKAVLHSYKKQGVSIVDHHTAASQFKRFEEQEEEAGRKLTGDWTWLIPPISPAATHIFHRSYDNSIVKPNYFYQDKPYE
Briefly: Imidazole Spin Shift Assay.

Each structure is given as a SMILES string.

Take `Cc1cc(N)nc(CCc2cccc([C@H](N)Cc3cc(C)cc(N)n3)c2)c1`: the Kd (as a rule, the free concentration of one partner at which half of the binding sites on the other are occupied at equilibrium, for simple one-to-one binding) came to 25.6 µM.
As for `Cc1cc(N)nc(CCc2cc(C#N)cc(CCc3cc(C)cc(N)n3)c2)c1`, the Kd is 4.47 µM.
The figure for `Cc1cc(N)nc(CCc2ccc(CCCN)c(CCc3cc(C)cc(N)n3)c2)c1` is 8.61 µM; for `CNCCN(C)c1cccc(CCc2cc(C)cc(N)n2)c1` [4-methyl-6-[2-(3-{methyl[2-(methylamino)ethyl]amino}phenyl)ethyl]pyridin-2-amine (13)] it is 50.5 µM; for `CNCCN(C)c1cncc(CCc2cc(C)cc(N)n2)c1` [4-methyl-6-[2-(5-{methyl[2-(methylamino)ethyl]amino}pyridin-3-yl)ethyl]pyridin-2-amine (14)] it is 57.6 µM.
Take `Cc1cc(N)nc(CCc2cncc(CCc3cc(C)nc(N)c3)c2)c1` [6-(2-{5-[2-(2-amino-6-methylpyridin-4-yl)ethyl]pyridin-3-yl}ethyl)-4-methylpyridin-2-amine]: the dissociation constant Kd was 5.03 µM.
The figure for `CNCCN(c1cc(F)cc(CCc2cc(C)cc(N)n2)c1)C1CC1` [6-[2-(3-{cyclopropyl[2-(methylamino)ethyl]amino}-5-fluorophenyl)ethyl]-4-methylpyridin-2-amine (18)] is 62.1 µM; for `NC(=Nc1cccc(OCCOc2cccc(N=C(N)c3cccs3)c2)c1)c1cccs1` [N-(3-{2-[3-(thiophene-2-imidamido)phenoxy]ethoxy}phenyl)thiophene-2-carboximidamide (26)] it is 127 µM.
The figure for `N=C(Nc1cccc(CCc2cccc(NC(=N)c3cccs3)c2)c1)c1cccs1` [N-(3-{2-[3-(thiophene-2-imidamido)phenyl]ethyl}phenyl)thiophene-2-carboximidamide (19)] is 99 µM.
For `N=C(Nc1cccc(CNC[C@@H]2CCCN2)c1)c1cccs1` [N-[3-({[(2S)-pyrrolidin-2-ylmethyl]amino}methyl)phenyl]thiophene-2-carboximidamide (20)] the value was 17.8 µM; for `N=C(Nc1cccc(COC[C@H]2C[C@H](OCc3cccc(NC(=N)c4cccs4)c3)CN2)c1)c1cccs1` [N-[3-({[(3S,5R)-5-({[3-(thiophene-2-imidamido)phenyl]methoxy}methyl)pyrrolidin-3-yl]oxy}methyl)phenyl]-2H-1λ⁴-thiophene-2-carboximidamide (28)], 7.73 µM.
Regarding `N=C(Nc1cccc(COC[C@@H]2C[C@H](OCc3cccc(NC(=N)c4cccs4)c3)CN2)c1)c1cccs1` [N-[3-({[(3S,5S)-5-({[3-(thiophene-2-imidamido)phenyl]methoxy}methyl)pyrrolidin-3-yl]oxy}methyl)phenyl]-2H-1λ⁴-thiophene-2-carboximidamide (25)], the Kd is 11 µM.
